Values joined by “and” are separate entries in the source; they are usually repeats but may differ in a detail not shown here. Equal entries are not always repeated.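 Tested at 5 concentrations; 48 h exposure; 96-well plates; endpoints linearly interpolated, else capped at highest concentration. Abbreviation: GI50, concentration required for 50% inhibition of growth. Definition used: TGI = concentration required for complete inhibition of growth.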 Bounds are passed on as bounds.

Among the test systems are HCC-2998 colon; NCI-H226 lung; MOLT-4 leukemia; EKVX NSCLC; HCT-116 colon; NCI-H23 lung; UACC-257 melanoma; HS 578T breast; CAKI-1 renal; SK-MEL-2 melanoma.
What all share (assay): NCI anticancer screen, dose series, 48 h

`O=C(c1ccccc1Nc1ccnc(C(F)(F)F)c1)N1CCN(c2cccc(Cl)c2)CC1`: the GI50 in the assay on HCC-2998 colon is 24.6 µM; with NCI-H226 lung, 15 µM; in the assay on MOLT-4 leukemia it was 11.9 µM; in the assay on EKVX NSCLC, 15.4 µM; with HCT-116 colon it was 12.2 µM; in the assay on NCI-H23 lung, 17.6 µM. For the same compound, the GI50 with UACC-257 melanoma is 12.8 µM; in the assay on HS 578T breast it was 17.3 µM; in the assay with CAKI-1 renal, 21 µM; in the assay on SK-MEL-2 melanoma, 21.1 µM. The TGI with HCC-2998 colon was above 72.9 µM; in the assay with NCI-H226 lung it was 49.2 µM; with MOLT-4 leukemia, 44.5 µM; in the assay on EKVX NSCLC, above 87.5 µM; in the assay on HCT-116 colon it was 29 µM; with NCI-H23 lung, above 100 µM. Moreover, the TGI in the assay with UACC-257 melanoma came to 49.2 µM; in the assay with HS 578T breast, 89.2 µM; with CAKI-1 renal, 75 µM; with SK-MEL-2 melanoma it was 50.3 µM.
Turning to `S=c1nc(-c2nc(=S)[nH]c3c2CCCCCCCCCC3)c2c([nH]1)CCCCCCCCCC2`, the TGI in the assay on HCC-2998 colon, in the assay on NCI-H226 lung, with MOLT-4 leukemia, in the assay with EKVX NSCLC, with HCT-116 colon and with NCI-H23 lung was above 100 µM each time. Also, the TGI with UACC-257 melanoma, in the assay with HS 578T breast, in the assay with CAKI-1 renal and in the assay with SK-MEL-2 melanoma was above 100 µM in each case.
In the case of `Cl.[Pt].[c-]1ccccc1-c1ccccn1.c1ccc(P(c2ccccc2)C([PH+](c2ccccc2)c2ccccc2)[PH+](c2ccccc2)c2ccccc2)cc1`, the GI50 in the assay on HCC-2998 colon is 3.64 µM; with NCI-H226 lung, 1.88 µM; in the assay with MOLT-4 leukemia, 2.13 µM; in the assay on EKVX NSCLC, 2.3 µM; with HCT-116 colon, 1.58 µM; in the assay with NCI-H23 lung it was 1.19 µM. Besides, the GI50 was 3.26 µM in the assay with UACC-257 melanoma, 2.22 µM in the assay with HS 578T breast, 1.81 µM in the assay on CAKI-1 renal and 2.09 µM in the assay on SK-MEL-2 melanoma. Further, the TGI in the assay with HCC-2998 colon was found to be 18.6 µM; with NCI-H226 lung, 9.81 µM; in the assay with MOLT-4 leukemia, 11.6 µM; in the assay on EKVX NSCLC, 62.2 µM; with HCT-116 colon it was 7.11 µM; in the assay with NCI-H23 lung, 18.4 µM. Besides, the TGI amounted to 38 µM in the assay with UACC-257 melanoma, 20.8 µM with HS 578T breast, 13.1 µM with CAKI-1 renal and 5.92 µM in the assay with SK-MEL-2 melanoma.
`Nc1ccc(-c2nc3ccc4[nH]ncc4c3c3c2CCCC3)cc1F`: the GI50 in the assay on HCC-2998 colon was 3.04 µM; in the assay on NCI-H226 lung, 0.686 µM; with MOLT-4 leukemia it was 1.27 µM; in the assay on EKVX NSCLC it was 0.215 µM; in the assay on HCT-116 colon, 0.6 µM; in the assay on NCI-H23 lung it was 1.54 µM. Further, the GI50 with UACC-257 melanoma is 1.92 µM; in the assay on HS 578T breast, 1.05 µM; in the assay on CAKI-1 renal, 0.323 µM; in the assay on SK-MEL-2 melanoma, 1.27 µM. The TGI turned out to be 12.3 µM in the assay on HCC-2998 colon; 5.5 µM in the assay with NCI-H226 lung; 5.82 µM in the assay on MOLT-4 leukemia; 3.92 µM with EKVX NSCLC; 5.99 µM in the assay on HCT-116 colon; 7.96 µM in the assay on NCI-H23 lung. Further, the TGI in the assay on UACC-257 melanoma is 10.7 µM; with HS 578T breast, 3.91 µM; in the assay with CAKI-1 renal it was 3.64 µM; with SK-MEL-2 melanoma, 6.19 µM.
Take `COc1ccc(C(=O)c2cc(OC)c(OC)c(OC)c2)cc1OC(C)=O`: the GI50 in the assay with HCC-2998 colon is 0.04 µM; in the assay on NCI-H226 lung, 8.71 µM; with MOLT-4 leukemia it was below 0.0199 µM; in the assay on EKVX NSCLC, 2.24 µM; in the assay with HCT-116 colon, 0.0297 µM; in the assay on NCI-H23 lung, 0.0662 µM. For the same compound, the GI50 in the assay with UACC-257 melanoma is above 100 µM; in the assay with HS 578T breast, 0.0235 µM; with CAKI-1 renal, 0.0746 µM; in the assay on SK-MEL-2 melanoma it was 0.0848 µM. Also, the TGI in the assay with HCC-2998 colon was above 100 µM; with NCI-H226 lung, above 100 µM; with MOLT-4 leukemia, above 43.3 µM; with EKVX NSCLC, above 100 µM; with HCT-116 colon, above 100 µM; in the assay with NCI-H23 lung, above 100 µM. Besides, the TGI with UACC-257 melanoma, with HS 578T breast, in the assay on CAKI-1 renal and in the assay on SK-MEL-2 melanoma was above 100 µM in each case.
`C/C1=C\[C@H](C)C[C@H](C)OC(=O)C[C@H](c2ccc(O)cc2)NC(=O)[C@@H](Cc2c(Br)[nH]c3ccccc23)N(C)C(=O)[C@H](C)NC(=O)[C@@H](C)C1`: the GI50 with HCC-2998 colon is 0.43 µM; with NCI-H226 lung it was 0.0268 µM; in the assay with MOLT-4 leukemia it was 0.0764 µM; in the assay with EKVX NSCLC, 0.132 µM; in the assay on HCT-116 colon it was 0.0329 µM; with NCI-H23 lung, 0.114 µM. Also, the GI50 was 0.0747 µM with UACC-257 melanoma; 0.0451 µM with HS 578T breast; 0.0272 µM with CAKI-1 renal; 0.0999 µM and 0.0207 µM in the assay with SK-MEL-2 melanoma. In addition, the TGI was 2.27 µM with HCC-2998 colon; 0.661 µM and 0.0703 µM in the assay with NCI-H226 lung; 4.54 µM in the assay with MOLT-4 leukemia; 0.746 µM and 1.83 µM in the assay on EKVX NSCLC; 0.705 µM and 5.15 µM with HCT-116 colon; 1.05 µM in the assay with NCI-H23 lung. For the same compound, the TGI is 0.37 µM and 1.15 µM with UACC-257 melanoma; 0.606 µM and 0.134 µM in the assay on HS 578T breast; 0.2 µM and 0.0985 µM in the assay on CAKI-1 renal; 0.251 µM and 0.0476 µM in the assay on SK-MEL-2 melanoma.
As for `C#CCN1C(=O)/C(=c2\sc3n(c2=O)C2C(NN=3)N(CC)C(=O)N2CC)c2ccccc21` (stereo not drawn), the GI50 in the assay with HCC-2998 colon was 1.19 µM; with NCI-H226 lung, 1.25 µM; with MOLT-4 leukemia, 0.708 µM; with EKVX NSCLC it was 1.8 µM; in the assay on HCT-116 colon, 0.376 µM; in the assay with NCI-H23 lung it was 1.51 µM. The GI50 is 49.2 µM with UACC-257 melanoma, 0.368 µM in the assay on HS 578T breast, 0.459 µM in the assay on CAKI-1 renal and 3.21 µM in the assay with SK-MEL-2 melanoma. The TGI is above 100 µM with HCC-2998 colon; above 83.2 µM in the assay on NCI-H226 lung; above 100 µM in the assay with MOLT-4 leukemia; above 100 µM in the assay on EKVX NSCLC; above 100 µM with HCT-116 colon; 37.2 µM in the assay on NCI-H23 lung. For the same compound, the TGI was above 100 µM in the assay on UACC-257 melanoma, 32.8 µM in the assay on HS 578T breast, above 54.2 µM in the assay with CAKI-1 renal and above 100 µM in the assay with SK-MEL-2 melanoma.
For `COc1ccc(-c2oc(=O)ccc2C#Cc2cc(OC)c(OC)c(OC)c2)cc1O`, the GI50 in the assay with NCI-H226 lung was 50.5 µM; in the assay with MOLT-4 leukemia, 3.17 µM; in the assay with EKVX NSCLC, 66.7 µM; in the assay with HCT-116 colon, 18.6 µM; in the assay on NCI-H23 lung, 22.3 µM; in the assay with UACC-257 melanoma it was 36.4 µM. Besides, the GI50 in the assay on HS 578T breast is 30.2 µM; with CAKI-1 renal, 32.8 µM; in the assay with SK-MEL-2 melanoma it was 28 µM. For the same compound, the TGI is above 100 µM in the assay on NCI-H226 lung; above 100 µM in the assay on MOLT-4 leukemia; above 100 µM in the assay with EKVX NSCLC; above 100 µM in the assay on HCT-116 colon; 81.2 µM in the assay on NCI-H23 lung; above 100 µM in the assay with UACC-257 melanoma. The TGI in the assay on HS 578T breast, in the assay on CAKI-1 renal and in the assay with SK-MEL-2 melanoma was above 100 µM each time.

(Values after PubChem BioAssay (NCI).)
